Results published in publication PMC7044277 (Nature Communications, 2020).
Values joined by “and” are separate entries in the source; they are usually repeats but may differ in a detail not shown here. Equal entries are not always repeated.

What was measured:
Type in all cases: cell-based
Design in all cases: GPCRome screening signal at PTGIR / GPCRome screening signal at PTH1R / GPCRome screening signal at PTH2R / GPCRome screening signal at QRFP / GPCRome screening signal at RXFP2 / GPCRome screening signal at RXFP3 / GPCRome screening signal at RXFP4 / GPCRome screening signal at S1PR2 / GPCRome screening signal at S1PR3 / GPCRome screening signal at S1PR4 / GPCRome screening signal at S1PR5 / GPCRome screening signal at SCTR / GPCRome screening signal at SSTR2 / GPCRome screening signal at SSSTR / GPCRome screening signal at SSTR4 / GPCRome screening signal at SSTR5 / GPCRome screening signal at SUCNR1 / GPCRome screening signal at TA1 / GPCRome screening signal at TAAR2 / GPCRome screening signal at TAAR5 / GPCRome screening signal at TAAR6 / GPCRome screening signal at TAAR8 / GPCRome screening signal at TACR1 / GPCRome screening signal at TACR2 / GPCRome screening signal at TACR3 / GPCRome screening signal at TBXA2R / GPCRome screening signal at TSHR / GPCRome screening signal at UTS2R / GPCRome screening signal at VIPR2 / GPCRome screening signal at GPR68 no V2 Tail / GPCRome screening signal at GRM2 / GPCRome screening signal at GRM3: reference not given here
320 non-olfactory GPCRs [1] = target: 320 non-olfactory GPCRs (Homo sapiens, UniProt P31391); details: receptor SSTR4
320 non-olfactory GPCRs [2] = target: T1, 320 non-olfactory GPCRs (Homo sapiens, UniProt Q9H1C0); details: receptor GPR92
T1 construct: expressed in transfected cells; host or cells: HTLA cells

320 non-olfactory GPCRs [3] = target: T2, 320 non-olfactory GPCRs (Homo sapiens, UniProt Q9P1P5); details: receptor TAAR2
T2 construct: expressed in transfected cells; host or cells: HTLA cells

320 non-olfactory GPCRs [4] = target: T3, 320 non-olfactory GPCRs (Homo sapiens, UniProt Q9BXA5); details: receptor SUCNR1
T3 construct: expressed in transfected cells; host or cells: HTLA cells

[5] = Fig_5f, single replicate values
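Wherever GPCRome agonism screen response is given: fold over basal response of each receptor without drug.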

320 non-olfactory GPCRs (Homo sapiens, UniProt P31391), sequence (P31391 whole entry): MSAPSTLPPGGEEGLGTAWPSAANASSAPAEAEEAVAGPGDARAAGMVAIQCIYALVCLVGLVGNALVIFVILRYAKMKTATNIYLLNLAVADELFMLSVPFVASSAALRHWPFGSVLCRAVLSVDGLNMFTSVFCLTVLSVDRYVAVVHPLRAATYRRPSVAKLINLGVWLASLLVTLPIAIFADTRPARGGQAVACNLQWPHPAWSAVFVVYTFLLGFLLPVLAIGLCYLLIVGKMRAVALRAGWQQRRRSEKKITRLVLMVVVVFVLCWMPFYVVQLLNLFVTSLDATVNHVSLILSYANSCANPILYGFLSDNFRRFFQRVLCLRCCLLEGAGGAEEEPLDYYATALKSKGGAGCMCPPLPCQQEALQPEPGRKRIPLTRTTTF
T1 sequence (Q9H1C0 whole entry): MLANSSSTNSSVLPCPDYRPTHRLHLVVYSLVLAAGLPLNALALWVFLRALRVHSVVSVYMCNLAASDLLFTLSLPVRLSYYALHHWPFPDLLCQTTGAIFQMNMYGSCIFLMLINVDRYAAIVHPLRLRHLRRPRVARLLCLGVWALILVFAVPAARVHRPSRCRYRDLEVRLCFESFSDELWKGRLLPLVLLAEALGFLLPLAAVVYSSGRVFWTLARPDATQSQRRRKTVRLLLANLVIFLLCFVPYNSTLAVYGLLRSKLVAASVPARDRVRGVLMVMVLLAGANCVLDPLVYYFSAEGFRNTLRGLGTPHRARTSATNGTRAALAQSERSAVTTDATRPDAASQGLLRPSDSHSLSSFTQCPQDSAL
T2 sequence (Q9P1P5 whole entry): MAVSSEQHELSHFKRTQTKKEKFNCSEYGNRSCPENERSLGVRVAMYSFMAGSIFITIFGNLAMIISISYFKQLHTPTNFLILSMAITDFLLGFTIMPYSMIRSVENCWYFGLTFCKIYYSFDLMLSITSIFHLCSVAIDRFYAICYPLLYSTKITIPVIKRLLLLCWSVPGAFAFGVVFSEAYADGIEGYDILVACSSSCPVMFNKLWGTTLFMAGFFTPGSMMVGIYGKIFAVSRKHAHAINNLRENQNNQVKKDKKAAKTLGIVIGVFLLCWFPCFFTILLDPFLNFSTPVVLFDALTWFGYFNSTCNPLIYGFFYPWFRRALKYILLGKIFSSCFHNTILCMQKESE
T3 sequence (Q9BXA5 whole entry): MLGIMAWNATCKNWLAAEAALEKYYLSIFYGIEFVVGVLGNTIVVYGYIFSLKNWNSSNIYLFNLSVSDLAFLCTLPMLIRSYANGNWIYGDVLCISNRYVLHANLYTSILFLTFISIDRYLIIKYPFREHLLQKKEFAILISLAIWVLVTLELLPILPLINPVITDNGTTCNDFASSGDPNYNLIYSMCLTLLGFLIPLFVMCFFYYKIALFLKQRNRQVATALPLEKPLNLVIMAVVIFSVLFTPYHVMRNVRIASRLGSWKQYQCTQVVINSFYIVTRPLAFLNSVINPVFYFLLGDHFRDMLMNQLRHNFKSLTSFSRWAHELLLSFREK

Structure (SMILES) | GPCRome screening signal at SSTR4 (320 non-olfactory GPCRs [1]; [5]) | GPCRome screening signal at GPR92 (320 non-olfactory GPCRs [2]; [5]) | GPCRome screening signal at TAAR2 (320 non-olfactory GPCRs [3]; [5]) | GPCRome screening signal at SUCNR1 (320 non-olfactory GPCRs [4]; [5]) | GPCRome agonism screen response (320 non-olfactory GPCRs [1]; replicate values, Fig_4g) | GPCRome agonism screen response (320 non-olfactory GPCRs [2]; replicate values, Fig_4g) | GPCRome agonism screen response (320 non-olfactory GPCRs [3]; replicate values, Fig_4g) | GPCRome agonism screen response (320 non-olfactory GPCRs [4]; replicate values, Fig_4g)
CCOc1ccccc1CCC(C)NCC1(O)CCCCC1.Cl (racemic) [Fig_5f] | 1.303 and 1.0005 and 1.096 and 1.043 | 0.9709 and 0.5547 and 0.5858 and 0.9422 | 1.515 and 0.6858 and 1.3165 and 0.7903 | 2.588 and 2.79 and 1.592 and 0.9771 |  |  |  | 
CCOc1cccc2cc(C(C)NCC3(O)CCCCC3)oc12 (centres unmarked) [O4LE6] |  |  |  |  | 1.584 and 2.327 and 0.4288 and 0.2624 | 1.1613 and 0.7262 and 0.6248 and 2.678 | 2.656 and 0.9121 and 0.6733 and 0.6661 | 2.7145 and 1.744 and 1.03 and 1.189
